Measurements taken from US20080107625A1, “Inhibitors of Hepatitis C Virus” (Bristol-Myers Squibb Company, priority 2006, published 2008).

What was measured:
[1] = test system: HCV replicon in HUH-7 cells; test: HCV replicon FRET assay; type: cell-based, HCV strain 1b; conditions: Hepatitis C virus, 96 h, 4 days
Excerpt: An HCV replicon whole cell system was established as described by Lohmann V, Korner F, Koch J, Herian U, Theilmann L, Bartenschlager R., Science 285(5424): 110-3 (1999). This system enabled us to evaluate the effects of our HCV Protease compounds on HCV RNA replication. Briefly, using the HCV strain 1b sequence described in the Lohmann paper (Assession number: AJ238799), an HCV cDNA was synthesized by Operon Technologies, Inc. (Alameda, Calif.), and the full-length replicon was then assembled in plasmid pGem9zf(+) (Promega, Madison, Wis.) using standard molecular biology techniques. […]
The HCV replicon FRET assay was developed to monitor the inhibitory effects of compounds described in the disclosure on HCV viral replication. […] After 4 days, cells were first assessed for cytotoxicity using alamar Blue (Trek Diagnostic Systems) for a CC50 reading. The toxicity of compound (CC50) was determined by adding 1/10th volume of alamar Blue to the media incubating the cells. After 4 hours, the fluorescence signal from each well was read, with an excitation wavelength at 530 nm and an emission wavelength of 580 nm, using the Cytofluor Series 4000 (Perspective Biosystems). […]

[2] = molecular target: T1, human neutrophil elastase (HNE) (Homo sapiens, UniProt P08246); test: Specificity assay, neutrophil elastase; type: biochemical; conditions: read-out: HLE activity in the specificity assay (IC50)
T1 construct: purchased Sigma or EMDbiosciences
T1 sequence (P08246 30-267): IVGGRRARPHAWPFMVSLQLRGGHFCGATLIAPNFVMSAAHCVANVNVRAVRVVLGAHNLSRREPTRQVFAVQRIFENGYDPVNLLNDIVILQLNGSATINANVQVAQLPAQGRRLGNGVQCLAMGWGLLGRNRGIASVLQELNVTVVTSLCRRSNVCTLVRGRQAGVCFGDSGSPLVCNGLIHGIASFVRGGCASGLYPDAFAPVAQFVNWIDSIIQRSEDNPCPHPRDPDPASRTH
Procedure: (§1) The specificities of compounds of the present disclosure were determined against a variety of serine proteases: human neutrophil elastase (HNE), porcine pancreatic elastase (PPE) and human pancreatic chymotrypsin and one cysteine protease: human liver cathepsin B. In all cases, a 96-well plate format protocol using colorimetric p-nitroaniline (pNA) substrate or fluorometric Amino-Methyl-Coumarin (AMC) substrate, specific for each enzyme was used as described previously (PCT Patent Application No. WO 00/09543) with some modifications. All enzymes were purchased from Sigma or EMDbiosciences while the substrates were from Bachem.
(§2) Each pNA assay included a 2 h enzyme-inhibitor pre-incubation at room temperature followed by addition of substrate and hydrolysis to ˜15% conversion as measured on a Spectramax Pro microplate reader. The cathepsin B assay was initiated by adding substrate to a 10 min enzyme-inhibitor pre-incubation at room temperature, and the assay plate measured immediately using the Cytofluor Series 4000. Compound concentrations varied from 100 to 0.4 μM depending on their potency.
(§3) 50 mM Tris(hydroxymethyl)aminomethane hydrochloride (Tris-HCl) pH 8, 0.5 M Sodium Sulfate (Na2SO4), 50 mM NaCl, 0.1 mM EDTA, 3% DMSO, 0.01% Tween-20 with: […]
(§4) The percentage of inhibition was calculated using the formula: [1−((UVinh−UVblank)/(UVctl−UVblank))]×100 […]

[3] = molecular target: T2, human pancreatic chymotrypsin (Homo sapiens, UniProt P17538); test: Specificity assay, chymotrypsin; type: biochemical
T2 construct: purchased Sigma or EMDbiosciences
Procedure: as §1, §2, §3, §4

human liver cathepsin B = molecular target: T3, human liver cathepsin B (Homo sapiens, UniProt P07858); test: Specificity assay, cathepsin B; type: biochemical
T3 construct: purchased Sigma or EMDbiosciences; host or cells: human liver (as named)
Procedure: as §1
as §2, with “potency. […]” for “potency.”
as §4

T2 sequence (P17538 19-263): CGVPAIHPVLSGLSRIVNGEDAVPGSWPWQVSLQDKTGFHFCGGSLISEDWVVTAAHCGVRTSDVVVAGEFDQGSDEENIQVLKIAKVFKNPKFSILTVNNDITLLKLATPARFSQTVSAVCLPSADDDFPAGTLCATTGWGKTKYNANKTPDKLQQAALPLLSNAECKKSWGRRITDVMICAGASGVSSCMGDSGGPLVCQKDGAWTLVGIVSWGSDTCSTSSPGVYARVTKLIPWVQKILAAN

CC(C)(C)OC(=O)N[C@H]1CN(C2CC2)CCC/C=C\C2C[C@@]2(C(=O)NS(=O)(=O)C2CC2)NC(=O)[C@@H]2C[C@@H](Oc3ccccn3)CN2C1=O (stereo partly shown) [Compound 1]
EC50 [1]: 1.09 µM | IC50 [2]: > 100 µM | IC50 [3]: > 100 µM | IC50 (human liver cathepsin B): > 100 µM
